Source: the supplement of paper PMC10307832

Each cell line was assayed with CC1=NN=C(O1)C2=NN=C(C=C2)N3CCC(CC3)OC4=C(C=CC(=C4)F)Cl + O=C(CCCCCCC(=O)Nc1ccccc1)NO [Vorinostat] (partner 1 µM) (assay: relative viability (nuclei count vs DMSO), 5 days (fraction); higher = more cells survive). Settings: first compound 0.8 µM.
How it was run: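 A single step with final 0.05% Triton X-100, 1% formaldehyde and 1 ug/ml Hoechst fixed the cells and stained nuclei 5 days after treatment. Lung cancer cell lines in 1536-well plates had been treated by pin tool the day after seeding with one drug alone or a fixed anchor-drug dose plus five library-drug doses (not always all listed) in √10 steps, and nuclei were counted on 4× images. Relative viability is the ratio of nuclei in treated wells to nuclei in vehicle wells, taken as the median of duplicate plates.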

Cell Line | relative viability
LCLC-103H | 0.478
NCI-H727 | 1.02
NCI-H2405 | 0.556
EMC-BAC-2 | 0.426
NCI-H23 | 0.359
HCC-366 | 0.112
NCI-H1755 | 0.553
NCI-H838 | 0.599
LK-2 | 0.256
NCI-H2347 | 0.597
NCI-H2342 | 0.551
SK-MES-1 | 0.765
H3255 | 0.597
COR-L23 | 0.378
COR-L 105 | 0.919
IA-LM | 0.296
LU99A | 0.456

Cell Line | relative viability
ChaGo-K-1 | 0.444
NCI-H2170 | 0.366
NCI-H460 | 0.215
HOP-62 | 0.243
HCC-44 | 0.708
SW 900 | 0.287
LXF-289 | 0.418
BEN | 0.536
HARA | 0.345
NCI-H1648 | 0.417
HCC-78 | 0.48
NCI-H1395 | 0.563
NCI-H1793 | 0.567
NCI-H1944 | 0.329
ABC-1 | 0.487
NCI-H358 | 0.341

Same assay, conditions: first compound 2.53 µM

Cell Line | relative viability
NCI-H522 | 0.964
SK-LU-1 | 0.662
NCI-H2087 | 0.408
NCI-H596 | 0.6
NCI-H1355 | 0.625
SW 1573 | 0.434
LCLC-103H | 0.531
NCI-H727 | 1.38
NCI-H2405 | 0.535
EMC-BAC-2 | 0.446
NCI-H23 | 0.558
HCC-366 | 0.127
NCI-H1755 | 0.611
NCI-H838 | 0.607
LK-2 | 0.291
NCI-H2347 | 0.428
NCI-H2342 | 0.583
SK-MES-1 | 0.766
H3255 | 0.533
COR-L23 | 0.375

Cell Line | relative viability
COR-L 105 | 0.794
IA-LM | 0.435
LU99A | 0.534
ChaGo-K-1 | 0.55
NCI-H2170 | 0.473
NCI-H460 | 0.208
HOP-62 | 0.287
HCC-44 | 0.698
SW 900 | 0.418
LXF-289 | 0.586
BEN | 0.551
HARA | 0.499
NCI-H1648 | 0.5
HCC-78 | 0.393
NCI-H1395 | 0.671
NCI-H1793 | 0.79
NCI-H1944 | 0.427
ABC-1 | 0.402
NCI-H358 | 0.399

Same assay, conditions: first compound 8 µM

Cell Line | relative viability
NCI-H522 | 0.805
SK-LU-1 | 0.589
NCI-H2087 | 0.291
NCI-H596 | 0.567
NCI-H1355 | 0.558
SW 1573 | 0.251
LCLC-103H | 0.475
